Test results as given in US20250108038A1 (priority 2023, published 2025).
Read-outs that look alike come from different tables or passages of the source.

How the values were obtained:
CYP3A4 = CYP3A4 (Homo sapiens, UniProt P08684); conditions: for Inhibition at Highest Test Article Concentration: 3A4, at 50 μM; for IC50: pooled human liver microsomes, 30 min
C57BL/6 mice = assay: Tail Suspension Test; format: in vivo, mouse; conditions: for Dunnett's Multiple Comparison Test Mean Diff., immobility on the TST: percent immobility
From the text: The Tail Suspension Test is a mouse behavioral test useful for screening for potential antidepressant drugs. The tail suspension test is an experimental method used in scientific research to measure a state of being helpless in rodents, especially in mice. It is based on the observation that if a mouse is subjected to short term inescapable stress, then it will stop struggling. Immobility is quantified by measuring the amount of time lacking whole-body activity.
A cohort of 32 adult male mice was used for locomotor activity and a separate cohort of 40 male mice were used for tail suspension (C57BL/6, 7-8 weeks old; body weights 18-25 g, Charles River Laboratories). Upon arrival at the facility, animals were group-housed (5/cage) with access to food and water ad libitum. Animals were maintained on a 12/12-hour light/dark cycle in a temperature—(22±2° C.) and humidity—(approx. 50%) controlled room. Animals were numbered consecutively by tail ID marker in each home cage. Each home cage was identified by a colored ID card indicating the study number, sex, animal numbers and date of birth.
Animals (8/group) were injected (10 mL/kg, ip) 30 min prior to the TST. For locomotor activity monitoring, mice were injected (10 mL/kg, ip; around 12-1 pm) after a full 24 hr period of recordings were collected for baseline activity. For both locomotor activity recordings and TST, PV-03446 doses included 0.3, 1, 3, and 10 mg/kg.
Tail Suspension Test: A piezoelectric sensor operated by the SmartCage system was utilized and video recording was conducted for scoring. Once animals were acclimated to the testing room, the TST was initiated by placing the tail of the test mouse onto the piezoelectric sensor-board and hanging the mouse upside down. The recording period was initiated once the mouse was upside down and lasted for 6 min. At the end of the recording period, the mouse was removed from the recording device and returned to its home cage. The immobilized time, indicating depression-like behavior, was quantified using manual scoring of the video recording from 120 seconds to 360 seconds during the TST. The percent immobility time was calculated as (immobility time (seconds)/240 seconds)*100.
Group differences found to have normal distribution were evaluated using a 1-way ANOVA followed by a Dunnett's Multiple Comparison Test to compare all treatment groups to the vehicle control. Statistical significance was set at p≤0.05.

CYP2B6 = molecular target: T1, CYP2B6 (Homo sapiens, UniProt P20813)
T1 sequence (P20813 1-491): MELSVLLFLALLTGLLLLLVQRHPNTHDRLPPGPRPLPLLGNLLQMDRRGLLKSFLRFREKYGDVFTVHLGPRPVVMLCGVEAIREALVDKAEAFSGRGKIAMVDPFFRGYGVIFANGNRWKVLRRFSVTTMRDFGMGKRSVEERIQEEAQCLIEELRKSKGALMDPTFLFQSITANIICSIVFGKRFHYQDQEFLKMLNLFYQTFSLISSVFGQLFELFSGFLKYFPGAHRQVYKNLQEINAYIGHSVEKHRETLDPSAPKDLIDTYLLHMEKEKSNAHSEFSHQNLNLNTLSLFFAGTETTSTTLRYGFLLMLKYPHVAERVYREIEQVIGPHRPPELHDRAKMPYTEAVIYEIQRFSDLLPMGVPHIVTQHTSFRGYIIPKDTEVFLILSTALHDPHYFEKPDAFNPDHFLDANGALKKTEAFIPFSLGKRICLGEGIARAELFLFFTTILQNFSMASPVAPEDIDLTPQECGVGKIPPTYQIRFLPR

CYP2C9 = CYP2C9 (Homo sapiens, UniProt P11712)
Sequence of CYP2C9 (P11712 whole entry): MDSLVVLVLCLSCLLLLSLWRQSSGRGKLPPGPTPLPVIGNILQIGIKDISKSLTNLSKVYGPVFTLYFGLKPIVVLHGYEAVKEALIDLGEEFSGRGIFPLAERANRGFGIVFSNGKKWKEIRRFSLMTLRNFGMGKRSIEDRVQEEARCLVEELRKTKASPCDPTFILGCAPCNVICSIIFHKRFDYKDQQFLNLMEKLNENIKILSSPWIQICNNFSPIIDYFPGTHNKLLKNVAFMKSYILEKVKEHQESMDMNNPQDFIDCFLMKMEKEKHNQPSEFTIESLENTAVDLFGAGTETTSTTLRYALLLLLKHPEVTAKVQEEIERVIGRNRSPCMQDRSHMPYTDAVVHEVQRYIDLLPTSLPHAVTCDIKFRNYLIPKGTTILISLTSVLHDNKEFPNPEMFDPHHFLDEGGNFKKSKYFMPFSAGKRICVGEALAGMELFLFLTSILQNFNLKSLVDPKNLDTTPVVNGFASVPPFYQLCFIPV

CYP2C8 = molecular target: T2, CYP2C8 (Homo sapiens, UniProt P10632); assay: in vitro; conditions: both, pH 7.4
T2 sequence (P10632 1-490): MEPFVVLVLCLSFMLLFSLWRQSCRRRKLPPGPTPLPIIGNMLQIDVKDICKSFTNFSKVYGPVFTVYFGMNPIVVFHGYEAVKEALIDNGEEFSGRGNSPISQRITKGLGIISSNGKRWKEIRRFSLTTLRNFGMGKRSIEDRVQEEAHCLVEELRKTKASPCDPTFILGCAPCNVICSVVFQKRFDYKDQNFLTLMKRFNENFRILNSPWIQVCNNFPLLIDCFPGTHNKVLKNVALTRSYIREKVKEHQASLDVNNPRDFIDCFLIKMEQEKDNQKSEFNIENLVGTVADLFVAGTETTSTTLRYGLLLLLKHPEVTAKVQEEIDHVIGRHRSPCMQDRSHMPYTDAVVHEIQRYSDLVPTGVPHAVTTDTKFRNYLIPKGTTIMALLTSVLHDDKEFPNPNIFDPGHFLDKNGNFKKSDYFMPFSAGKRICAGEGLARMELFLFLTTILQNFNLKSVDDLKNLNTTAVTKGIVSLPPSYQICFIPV

Sequence of CYP3A4 (P08684 whole entry): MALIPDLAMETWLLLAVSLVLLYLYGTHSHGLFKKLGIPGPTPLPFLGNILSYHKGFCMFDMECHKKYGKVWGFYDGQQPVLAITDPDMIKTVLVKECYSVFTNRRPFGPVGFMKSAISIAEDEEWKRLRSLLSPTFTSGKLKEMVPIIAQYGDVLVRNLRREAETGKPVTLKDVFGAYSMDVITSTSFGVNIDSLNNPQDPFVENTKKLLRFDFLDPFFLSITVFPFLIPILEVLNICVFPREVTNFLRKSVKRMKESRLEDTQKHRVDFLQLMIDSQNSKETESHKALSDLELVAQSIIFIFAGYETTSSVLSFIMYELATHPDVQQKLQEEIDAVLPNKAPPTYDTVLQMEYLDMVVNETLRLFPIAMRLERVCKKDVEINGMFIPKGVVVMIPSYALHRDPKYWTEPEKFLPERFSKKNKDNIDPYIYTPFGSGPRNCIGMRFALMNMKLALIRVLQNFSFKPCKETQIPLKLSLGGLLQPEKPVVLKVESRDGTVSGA

SMILES: Clc1ccc(C2(OCC3OCCO3)c3ccccc3C3=NCCN32)cc1 (stereo not drawn) [Compound I-19]
- Inhibition at Highest Test Article Concentration (CYP3A4; Midazolam): 28.4 at 50 μM %
- Inhibition at Highest Test Article Concentration (CYP3A4; Testosterone): 57.5 at 50 μM %
- IC50 (CYP3A4; substrate midazolam): did not inhibit
- IC50 (CYP3A4; substrate testosterone): did not inhibit
- One-way analysis of variance F, immobility on the TST (C57BL/6 mice; 0.3, 1.0, 3.0, 10.0 mg/kg IP vs control, 5 groups): 4.71
- immobility (%) (C57BL/6 mice; 0.3, 1.0, 3.0 and 10.0 mg/kg, IP, 30 min prior to TST): significant reduction in immobility (%) at all doses tested
- decrease of immobility compared to vehicle (C57BL/6 mice; 0.3-10 mg/kg IP, depending on the dose): 26-38%
- Dunnett's Multiple Comparison Test Significant? P < 0.05?, immobility on the TST (C57BL/6 mice; Control vs 0.3 mg/kg IP): Yes
- Dunnett's Multiple Comparison Test q, immobility on the TST (C57BL/6 mice; Control vs 0.3 mg/kg IP): 2.592
- Dunnett's Multiple Comparison Test Mean Diff., immobility on the TST (C57BL/6 mice; Control vs 0.3 mg/kg IP): 19.9
- Dunnett's Multiple Comparison Test Significant? P < 0.05?, immobility on the TST (C57BL/6 mice; Control vs 1.0 mg/kg IP): Yes
- Dunnett's Multiple Comparison Test q, immobility on the TST (C57BL/6 mice; Control vs 1.0 mg/kg IP): 3.739
- Dunnett's Multiple Comparison Test Mean Diff., immobility on the TST (C57BL/6 mice; Control vs 1.0 mg/kg IP): 28.7
- Dunnett's Multiple Comparison Test Significant? P < 0.05?, immobility on the TST (C57BL/6 mice; Control vs 3.0 mg/kg IP): Yes
- Dunnett's Multiple Comparison Test q, immobility on the TST (C57BL/6 mice; Control vs 3.0 mg/kg IP): 3.773
- Dunnett's Multiple Comparison Test Mean Diff., immobility on the TST (C57BL/6 mice; Control vs 3.0 mg/kg IP): 28.96
- Dunnett's Multiple Comparison Test Significant? P < 0.05?, immobility on the TST (C57BL/6 mice; Control vs 10.0 mg/kg IP): Yes
- Dunnett's Multiple Comparison Test q, immobility on the TST (C57BL/6 mice; Control vs 10.0 mg/kg IP): 2.626
- Dunnett's Multiple Comparison Test Mean Diff., immobility on the TST (C57BL/6 mice; Control vs 10.0 mg/kg IP): 20.16
- Inhibition at Highest Test Article Concentration (CYP2B6; 2B6, Bupropion, at 50 μM): 77.2 at 50 μM %
- IC50 (CYP2B6; microsomes): 7.44 µM
- Inhibition at Highest Test Article Concentration (CYP2C9; 2C9, Diclofenac, at 50 μM): 53.3 at 50 μM %
- IC50 (CYP2C9; pooled human liver microsomes, 30 min): did not inhibit

SMILES: OC1(c2ccc(Cl)cc2)c2ccccc2C2=NCCN21 (stereo not drawn) [Compound A, 5-(4-chlorophenyl)-2,3-dihydroimidazo[1,2-b]isoindol-5-ol, reference compound]
- inhibition at 10 µM (CYP2C8): 48.9%
